# Measurements: patent US9587225B2, “Low-molecular-compound for improving production, maintenance and proliferation of pluripotent stem cells, composition comprising the same, and culture method” (KOREA RESEARCH INSTITUTE OF BIOSCIENCE AND BIOTECHNOLOGY, priority 2012, dated 2017)
# Tests used:
# Type in all cases: cell-based
# [1] = system: human skin fibroblasts; experiment: SA-β-gal senescence assay during reprogramming; settings: 10 days after induction of reprogramming, compared to untreated control (OSKM alone) (FIG. 17)
# [2] = system: Mouse embryonic fibroblasts (OG2-MEF; hemizygous for the Oct4-GFP transgene); experiment: Reprogramming of mouse embryonic fibroblasts, Oct4-GFP colony count
# Experimental: FIG. 1 is a process of screening mouse cell reprogramming factors using analog library screening of novel trans-3-indoleacrylic acid-based compounds. In order to screen low-molecular-weight compounds that promote the production of reprogrammed stem cells, mouse embryonic stem cells (OG2-MEF; hemizygous for the Oct4-GFP transgene) were transduced with reprogramming viruses (Oct4, Sox2, Klf4, and c-Myc). After 5 days, the cells were seeded on gelatin-coated plates and then cultured in mouse embryonic stem cell culture media containing each of low-molecular-weight compounds until colonies having a morphology similar to that of mouse embryonic stem cells were formed. After 15 days, the number of colonies expressing endogenous Oct4 GFP fluorescence was measured, and compounds that increased the efficiency of reprogramming compared to that of a control group were selected. […] Oct4 (O), Sox2 (S), Klf4 (K), and cMyc (M). FIG. 1B is a graph showing the increase in efficiency of reprogramming by RSC-133 and ID-558 among screened compounds. The values shown on the graph are mean values. The data are expressed as mean±SD (n=3).
# The OSKM reprogramming factor virus was produced according to the method of Example 3. […] At 15 days after the transfection, the number of either colonies showing AP activity or colonies expressing endogenous Oct4 GFP fluorescence was measured to determine the efficiency of reprogramming.
# To discover low-molecular-weight compounds that are involved in the reprogramming process, analog library screening of novel trans-3-indoleacrylic acid-based compounds was performed in mouse cells. Mouse embryonic fibroblasts (OG2-MEF: hemizygous for the Oct4-GFP transgene) were transfected with reprogramming viruses of Oct4, Sox2, Klf4 and c-Myc (OSKM), and after 5 days, the cells were seeded on gelatin-coated 12-well plates and incubated with mouse embryonic stem cell culture medium containing each of low-molecular-weight compounds until colonies having a morphology similar to that mouse stem cells were formed so that endogenous Oct4 GFP fluorescence was expressed (FIG. 1A). […]
# [3] = system: human skin fibroblasts; experiment: MTT cytotoxicity assay; settings: concentration up to 50 μM, 72 hours after treatment (FIG. 9)
# Experimental: FIG. 9 is a graph showing the results of analyzing the effect of RSC-133 on the cytotoxicity of human skin fibroblasts. At 72 hours after treatment with various concentrations of RSC-133, cytotoxicity was measured by MTT (3-(4,5-dimethylthiazol-2-yl)-2,5-diphenyltetrazolium bromide (yellow tetrazole) assays. The values shown on the graph are mean values. The data are expressed as mean±SD (n=3).
# [4] = system: H9 human embryonic stem cells; experiment: Maintenance of undifferentiated state of hESC in unconditioned medium
# Experimental: It was observed that, when H9 human embryonic stem cells (hESs) were cultured in unconditioned medium (UM), the differentiation thereof was induced, but when the cells were cultured in UM containing RSC-133, the degree of induced differentiation was inhibited, and pluripotency was acquired again. The efficiency of acquisition of pluripotency was measured by calculating the number of colonies showing AP activity. The values shown on the graph are mean values. The data are expressed as mean±SD (n=3) (*P<0.01, **P<0.005, by t-test).
# Human skin fibroblasts (hFFs) were used as a negative control group. H3 and GAPDH proteins were used as internal controls.
# Human embryonic stem cell (hESC) H9 (NIH Code, WA09; WiCell Research Institute, Madison, Wis.) and reprogrammed stem cells (hiPSC) were generally cultured in hESC culture medium (composed of 80% DMEM/F12, 20% knockout serum replacement (KSR, Invitrogen, Carlsbad, Calif.), 1% non-essential amino acids (NEAR, Invitrogen), 1 mM L-glutamine (Invitrogen), 0.1 mM β-mercaptoethanol (Sigma, St. Louis, Mo.) and 6 ng/ml bFGF (basic fibroblast growth factor, Invitrogen)) on γ-irradiated MEFs (mouse embryonic fibroblasts). The cells were subcultured with 1 mg/ml collagenase IV (Invitrogen) at intervals of 5-6 days. Human newborn foreskin fibroblasts (hFF, ATCC, catalog number CRL-2097; American Type Culture Collection, Manassas, Va.) were cultured in DMEM containing 10% FBS (fetal bovine serum, Invitrogen), 1% non-essential amino acid, 1 mM L-glutamine and 0.1 mM β-mercaptoethanol.
# When human embryonic stem cells (H9) are cultured in unconditioned medium (UM), their differentiation is induced. […] As a positive control group, embryonic stem cells cultured for 6 days in MEF-conditioned medium (CM) effective for maintenance of an undifferentiated state were used. The efficiency of maintenance of an undifferentiated state and inhibition of differentiation was determined by measuring the number of colonies showing AP activity (the lower panel of FIG. 28). […]
smiles,measurement,setting,value
"NC(=O)c1cccc(NC(=O)/C=C/c2c[nH]c3ccccc23)c1 [RSC-133, 3-[3-(1H-indol-3-yl)-acrylamido]-benzamide]",decrease of the ratio of SA-β-gal-positive cells,[1],37.23%
same,efficiency of reprogramming (number of colonies expressing endogenous Oct4 GFP fluorescence),"[2]; OG2-MEF transfected with OSKM, after 15 days, compared to control group",showed the effect of increasing the efficiency of reprogramming
same,efficiency of reprogramming compared to reported compounds,"[2]; vs 5-Azacytidine, BIX-01294, VPA or increased MOI of OSKM virus (FIG. 2a)",greatly increased the efficiency of reprogramming
same,cytotoxicity (MTT),[3],did not induce cytotoxicity
same,induced differentiation and pluripotency of hESC in unconditioned medium (AP-positive colonies),[4]; H9 cultured 6 days in UM supplemented with RSC-133 (FIG. 28),the degree of induced differentiation was inhibited and pluripotency was re-acquired
same,expression of Oct4 and H3K9ace (Western blot),[4]; H9 in UM containing RSC-133 vs CM (FIG. 29),at levels similar to those in the human embryonic stem cells cultured in CM
same,expression of pluripotency-specific markers Oct4 and Tra1-81 (immunostaining),[4]; H9 in UM supplemented with RSC-133 vs CM,expressed at levels similar to those of human embryonic stem cells cultured in CM
